Results reported in US8530404B2, “Compounds and methods for treatment of cancer” (FibroGen, Inc., priority 2005, dated 2013).

Assays:
[1] = test system: CDKN1C gene expression; experiment: CDKN1C gene expression in MCF7 cells; assay type: cell-based; details: Homo sapiens, MCF7, read-out: fold-increase in CDKN1C mRNA expression
Protocol: (§1) To identify compounds useful in the methods of the present invention, the following studies were performed. The effect of compounds of the present invention on expression of various genes associated with anti-tumor activity (e.g., genes having anti-proliferative activity, genes having pro-apoptotic activity, genes having anti-tumor activity, etc.). In these experiments, the effect of compounds on BNIP3, BNIP3L, NDRG1, CDKN1C, and REDD1/RTP801 gene expression in various types of cultured tumor cells line was examined, including Hep3B cells (human hepatocellular carcinoma), Kelly neuroblastoma cells, and MCF7 cells (human breast cancer)
The effects of various compounds of the present invention on the expression of genes associated with tumor growth and progression were examined in MCF7 breast cancer cells as follows. In some experiments, MCF7 (ATCC) cells were plated in 96-well tissue culture dishes (approximately 20,000 cells per well) and cultured in DMEM media supplemented with 10% serum. The following day, the cells were washed and the media was replaced with DMEM containing 0.5% FBS. Various compounds of the present invention were added to the cultured cells to a final concentration of 20 μM, and the cells cultured for an additional 20-24 hours. DMSO (0.5%) was added to control cell cultures. RNA was isolated as described above. Changes in gene expression levels are presented as fold change compared to that of control (0.5% DMSO-treated) cultures.

[2] = test system: CDKN1C gene expression; experiment: CDKN1C gene expression in Kelly neuroblastoma cells; assay type: cell-based; details: Kelly, read-out: fold-increase in CDKN1C mRNA expression
Protocol: as §1
The effects of various compounds of the present invention on the expression of genes associated with tumor growth and progression were examined in Kelly neuroblastoma cells as follows. Kelly neuroblastoma cells were grown in RPMI media. For each experiment, Kelly neuroblastoma cells were added to 96-well tissue culture plates (approximately 40,000 cells per well) such that the plated cells reached confluence the following day. On the following day, the cells were washed and the media replaced with RPMI containing 0.5% FBS. Various compounds of the present invention were added to the cultured cells to a final concentration of 20 μM, and the cells cultured for an additional 20-24 hours. DMSO (0.5%) was added to control cell cultures.
RNA was isolated from the Kelly neuroblastoma cells using a commercial kit and used for the preparation of cDNA. BNIP3, CDKN1C, and 18S RNA levels were measured using commercial kits (18S, Applied Biosystems cat#4319413E); BNIP3, Applied Biosystems cat#HS00969293 MH). RNA levels for BNIP3 and CDKN1C were normalized to that of 18S RNA and is presented as fold-change compared to that observed in DMSO control cultures. Kelly cell NDRG1 and BNIP3L mRNA levels were measured by Affymetrix microarray in a separate study. Cells were harvested after 6 hours incubation with 20 μM test compound or DMSO (0.5%) as control. RNA was isolated and labeled probes were prepared and hybridized to U133 Plus 2.0 Affymetrix microarrays. Changes in gene expression levels are presented as fold change compared to that of control (0.5% DMSO-treated) cultures.

[3] = test system: NDRG1 gene expression; experiment: In vivo NDRG1 gene expression in Swiss Webster mice (quantitative PCR); details: Mus musculus, iv, 4 h, read-out: fold change in NDRG1 mRNA level
Protocol: The effects of various compounds of the present invention on the expression of genes associated with tumor growth and progression (e.g., expression of genes associated with anti-proliferative effects) were examined in vivo as follows. In these studies, male Swiss Webster mice (25 g) were administered a single intravenous (i.v.) dose of various compounds (60 mg/kg) of the present invention via the tail vein. Four hours after administration of compound, the kidneys and liver were removed and preserved in RNAlater (Ambion). RNA isolation and cDNA synthesis was carried out as follows. Murine kidney tissue was added to TRIzol (Invitrogen) and homogenized using a 5-mm stainless steel bead for 4 minutes at 25 Hz in a Mixer Mill 300 (Qiagen). Homogenates were extracted with chloroform according to the manufacturer's instructions and aqueous supernatants were isolated. The aqueous supernatants were combined with equal volumes of 70% ethanol and then loaded onto RNeasy Mini spin columns (Qiagen). RNA was isolated according to the manufacturer's instructions.
Synthesis of cDNA from the isolated total RNA was carried out using Omniscript reverse transcriptase (Qiagen) and random primers according to the manufacturer's instructions. Measurement of gene expression levels in compound-treated animals and in vehicle-treated control animals was performed by quantitative PCR using TaqMan Universal PCR Master Mix (Applied Biosystems) and TaqMan Assay-on-Demand assays (Applied Biosystems) in a Prism 7000 system instrument (Applied Biosystems), according to manufacturer's instructions. The assays used were as follows: 18S ribosomal RNA, Hs99999901_s1; BNIP3, Mm00833810_g1; BNIP3L, Mm00786306_s1; NDRG1, Mm00440447_m1. Each PCR amplification reaction included a standard curve and a water blank. Data for gene expression levels for BNIP3, BNIP3L, and NDRG1 were normalized to that of 18S ribosomal RNA within each sample. Data is presented as fold change in specific mRNA levels relative to that of non-treated control animals.

| SMILES | fold induction at 20 µM [1] | fold induction at 20 µM [2] | fold induction at 60 mg/kg [3] |
| --- | --- | --- | --- |
| C[C@H](NC(=O)c1ncc2cc(Oc3ccccc3)ccc2c1O)C(=O)O [Compound B, (S)-2-[(4-Hydroxy-7-phenoxy-isoquinoline-3-carbonyl)-amino]-propionic acid] | 0.5 | 91 | 0.9 |
| COc1ccc(Oc2ccc3c(O)c(C(=O)NCC(=O)O)ncc3c2)cc1 [Compound C, {[4-Hydroxy-7-(4-methoxy-phenoxy)-isoquinoline-3-carbonyl]-amino}-acetic acid] | 0.6 | 49 | 1 |
| Cc1nc(C(=O)NCC(=O)O)c(O)c2ccc(Oc3ccccc3)cc12 [Compound D, [(4-Hydroxy-1-methyl-7-phenoxy-isoquinoline-3-carbonyl)-amino]-acetic acid] | – | 382 | 3.6 |
| O=C(O)CNC(=O)c1ncc2cc(Oc3ccc(F)cc3)ccc2c1O [Compound E, {[7-(4-fluoro-phenoxy)-4-hydroxy-isoquinoline-3-carbonyl]-amino}-acetic acid] | 0.4 | 184 | 1.8 |
